Molecules are shown by their SMILES.

This assay addresses T1, mGlyT-1b (Mus musculus, UniProt P28571).
T1 sequence (P28571 1-651 isoform P28571-2): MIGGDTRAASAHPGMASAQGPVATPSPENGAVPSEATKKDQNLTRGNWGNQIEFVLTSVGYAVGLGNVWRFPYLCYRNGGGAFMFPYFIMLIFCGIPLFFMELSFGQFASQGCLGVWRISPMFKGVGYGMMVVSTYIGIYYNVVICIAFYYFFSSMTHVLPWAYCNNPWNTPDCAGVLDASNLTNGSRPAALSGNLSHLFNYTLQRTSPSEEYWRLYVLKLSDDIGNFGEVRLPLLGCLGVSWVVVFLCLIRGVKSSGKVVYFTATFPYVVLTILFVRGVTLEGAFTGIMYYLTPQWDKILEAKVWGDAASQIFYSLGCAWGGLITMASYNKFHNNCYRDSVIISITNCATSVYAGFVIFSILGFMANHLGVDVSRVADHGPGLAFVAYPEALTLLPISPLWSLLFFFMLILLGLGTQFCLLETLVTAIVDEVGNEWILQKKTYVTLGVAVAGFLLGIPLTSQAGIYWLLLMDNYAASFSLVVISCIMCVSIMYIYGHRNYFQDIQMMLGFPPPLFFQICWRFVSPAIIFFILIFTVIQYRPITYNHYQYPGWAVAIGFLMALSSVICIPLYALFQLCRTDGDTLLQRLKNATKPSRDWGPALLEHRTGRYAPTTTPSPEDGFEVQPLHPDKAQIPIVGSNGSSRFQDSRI
Briefly: Glycine uptake inhibition assay (mGlyT-1b). In kind it is cell-based. The note with it: [3H]-glycine uptake in Flp-in-CHO cells transfected with mGlyT-1b cDNA; values of some enantiomers. The method, then:
DMEM complete medium: Nutrient mixture F-12 (Gibco Life-technologies), fetal bovine serum (FBS) 5%, (Gibco life technologies), Penicillin/Streptomycin1% (Gibco life technologies), Hygromycin 0.6 mg/ml (Gibco life technologies), Glutamine 1 mM Gibco life technologies).
Uptake buffer (UB): 150 mM NaCl, 10 mM Hepes-Tris, pH 7.4, 1 mM CaCl2, 2.5 mM KCl, 2.5 mM MgSO4, 10 mM (+) D-glucose.
Flp-in™-CHO (Invitrogen Cat n° R758–07) cells stably transfected with mGlyT1b cDNA.
Glycine Uptake Inhibition Assay (mGlyT-1b)
On day 1 mammalian cells, (Flp-in™-CHO), transfected with mGlyT-1b cDNA, were plated at the density of 40,000 cells/well in complete F-12 medium, without hygromycin in. 96-well culture plates. On day 2, the medium was aspirated and the cells were washed twice with uptake buffer (UB). The cells were then incubated for 20 min at 22° C. with either (i) no potential competitor, (ii) 10 mM non-radioactive glycine, (iii) a concentration of a potential inhibitor. […] A solution was then immediately added containing [^3H]-glycine 60 nM (11–16 Ci/mmol) and 25 μM non-radioactive glycine. The plates were incubated with gentle shaking and the reaction was stopped by aspiration of the mixture and washing (three times) with ice-cold UB. The cells were lysed with scintillation liquid, shaken 3 hours and the radioactivity in the cells was counted using a scintillation counter.
A word on the IC50: it is the concentration that inhibits the measured activity by half. A high value points to lower potency. Compound `O=C1NCC(c2ccccc2)C12CCN([C@@H]1CCCC[C@@H]1c1ccccc1)CC2` (mixture of isomers) [Example 1, cis-rac-4-Phenyl-8-(2-phenyl-cyclohexyl)-2,8-diaza-spiro[4.5]decan-1-one] registered an IC50 of 61 nM.

The compound `Cc1ccc([C@H]2CCCC[C@H]2N2CCC3(CC2)C(=O)NCC3c2ccccc2)cc1` (mixture of isomers) [Example 2, Cis-rac-4-Phenyl-8-(2-p-tolyl-cyclohexyl)-2,8-diaza-spiro[4.5]decan-1-one] displayed an IC50 of 105 nM.

For `O=C1NCC(c2ccccc2)C12CCN([C@@H]1CCCC[C@@H]1c1ccc(F)cc1)CC2` (mixture of isomers) [Example 6, cis-rac-8-[2-(4-Fluoro-phenyl)-cyclohexyl]-4-phenyl-2,8-diaza-spiro[4.5]decan-1-one], 48 nM corresponded to half-maximal inhibition (IC50).

The compound `O=C1NCC(c2ccc(F)cc2)C12CCN([C@@H]1CCCC[C@@H]1c1ccc(C(F)(F)F)cc1)CC2` (mixture of isomers) [Example 10, cis-rac-4-(4-Fluoro-phenyl)-8-[2-(4-trifluoromethyl-phenyl)-cyclohexyl]-2,8-diaza-spiro[4.5]decan-1-one] returned a 50% inhibitory concentration (IC50) of 91 nM.

`O=C1NCC(c2ccccc2)C12CCN(C1CCCCC1(O)c1ccc(F)cc1)CC2` (centres unmarked) [Example 11, 8-[2-(4-Fluoro-phenyl)-2-hydroxy-cyclohexyl]-4-phenyl-2,8-diaza-spiro[4.5]decan-1-one] yielded a concentration for half-maximal inhibition (IC50) of 70 nM.

On to `O=C1NCC(c2ccc(F)cc2)C12CCN(C1CCCCC1(O)c1ccccc1F)CC2` (centres unmarked) [Example 16, 4-(4-Fluoro-phenyl)-8-[2-(2-fluoro-phenyl)-2-hydroxy-cyclohexyl]-2,8-diaza-spiro[4.5]decan-1-one], for which the half-inhibitory concentration (IC50) was determined as 69 nM.

`O=C1NCC(c2ccc(F)cc2)C12CCN(C1CCCCC1(O)c1cccc(Cl)c1)CC2` (centres unmarked) [Example 17, 8-[2-(3-Chloro-phenyl)-2-hydroxy-cyclohexyl]-4-(4-fluoro-phenyl)-2,8-diaza-spiro[4.5]decan-1-one] had a concentration for half-maximal inhibition (IC50) of 73 nM.

The compound `O=C1NCC(c2ccc(F)cc2)C12CCN(C1COCCC1(O)c1ccccc1)CC2` (stereo not drawn) [Example 29, 4-(4-Fluoro-phenyl)-8-trans-(4-hydroxy-4-phenyl-tetrahydro-pyran-3-yl)-2,8-diaza-spiro[4.5]decan-1-one] registered a half-inhibitory concentration (IC50) of 91 nM.

The values above are taken from patent publication US7173133B2, “Diaza-spiropiperidine derivatives” (Hoffmann-La Roche Inc., priority 2004, dated 2007).
